Columns and labels:
[1] = test system: Neisseria gonorrhoeae strain WHO Z; settings: strain phenotype; cited from earlier work
Neisseria gonorrhoeae = assay: Antibiotic resistance development test over 30 days; type: cell-based; settings: control; 30 days of treatment
Experimental: FIG. 2: Antibiotic resistance development assay of PBT2.
Resistance development was tested over a 30 day period with PBT2 and using Kanamycin as a control.

[2] = test system: Neisseria gonorrhoeae ATCC49226; assay: MIC of PBT2 and comparators against CLSI reference strain; type: cell-based; settings: ATCC49226, comparator antimicrobials
From the text: 13 multidrug resistant WHO strains of Neisseria gonorrhoeae were selected to cover antimicrobial resistance phenotypes to all the antibiotics currently used.

[3] = test system: Neisseria gonorrhoeae ATCC49226; settings: cited from earlier work
[4] = test system: Neisseria gonorrhoeae strain WHO Z; assay: Ex vivo Neisseria gonorrhoeae infection of human cervical (Pex) cells; type: cell-based
From the text: FIG. 4: Chart indicating PBT2 can cure Neisseria gonorrhoeae infection of human cervical (Pex) cells. […] Ceftriaxone (CRO, positive control) is currently recommended for gonorrhoea treatment. Veh—0.1% DMSO vehicle control; UT—untreated; * p<0.0001 versus vehicle for CRO or PBT2 treatment.
To assess the ability of PBT2 to cure an established gonococcal infection in a human ex vivo system, primary human cervical epithelial (Pex) cells were challenged with Neisseria gonorrhoeae strain WHO Z for 90 min and then treated with 0.1% DMSO (vehicle control), PBT2 (0.016 mg/L to 4.695 mg/L), or ceftriaxone (0.5 mg/L, positive control) for 24 h. Viable gonococci were then enumerated. […] PBT2-induced Pex cell cytotoxicity was not observed during the assay.

[5] = test system: Neisseria gonorrhoeae strain WHO Z; assay: MIC of Triton X-100 with/without PBT2; type: cell-based
From the text: Without wishing to be bound by theory, the inventors hypothesise that this may due to the fact PBT2 is a derivative of the iron chelator clioquinol and PBT2 has the capacity to chelate a range of heavy metals including iron. Genes encoding metal homeostasis proteins (blue dots) are presented in the volcano plot (FIG. 3). Metal homeostasis was previously identified as a crucial feature of gonococcal biology, and therefore it is postulated this may be an “Achilles' heel” with respect to Neisseria gonorrhoeae ionophore sensitivity. […] MpeR is an iron-repressed, AraC-like protein that regulates the mtr efflux locus (involved in antimicrobial susceptibility) in Neisseria gonorrhoeae. Up-regulation of mpeR (e. g. by PBT2) down-regulates MtrF and, in turn, would increase Neisseria gonorrhoeae sensitivity to the antimicrobial detergent, Triton X-100 (22). […] Thus, without wishing to be bound to theory, the inventors hypothesise that PBT2 may influence bacterial iron homeostasis and trigger general defence mechanisms, such as Mtr-mediated antimicrobial efflux, but the Mtr-system may be unable to protect against PBT2.

[6] = test system: Streptococcus uberis (S. uberis); settings: in the absence of an antibiotic; cited from earlier work
[7] = test system: erythromycin-resistant group A Streptococcus (GAS); settings: in the absence of an antibiotic; cited from earlier work
[8] = test system: methicillin-resistant Staphylococcus aureus (MRSA); settings: in the absence of an antibiotic; cited from earlier work
[9] = test system: vancomycin-resistant Enterococcus (VRE); settings: in the absence of an antibiotic; cited from earlier work

O=C(O)c1cn(C2CC2)c2cc(N3CCNCC3)c(F)cc2c1=O [Ciprofloxacin]
resistance of WHO Z [1]: resistant

NC[C@H]1O[C@H](O[C@H]2[C@H](O)[C@@H](O[C@H]3O[C@H](CO)[C@@H](O)[C@H](N)[C@H]3O)[C@H](N)C[C@@H]2N)[C@H](O)[C@@H](O)[C@@H]1O [Kanamycin, reference compound]
development of resistance to kanamycin (Neisseria gonorrhoeae): development of resistance

CN(C)[C@@H]1C(O)=C(C(N)=O)C(=O)[C@@]2(O)C(O)=C3C(=O)c4c(O)cccc4[C@@](C)(O)[C@H]3C[C@@H]12 [Tetracycline, reference compound]
MIC ([2]; agar dilution): 0.25 µg/mL | MIC ([2]; broth dilution): 0.25 µg/mL | CLSI agar dilution MIC QC range [3]: 0.25 to 1 µg/mL | resistance of WHO Z [1]: resistant

CC[C@H]1OC(=O)[C@H](C)[C@@H](O[C@H]2C[C@@](C)(OC)[C@@H](O)[C@H](C)O2)[C@H](C)[C@@H](O[C@@H]2O[C@H](C)C[C@H](N(C)C)[C@H]2O)[C@](C)(O)C[C@@H](C)CN(C)[C@H](C)[C@@H](O)[C@]1(C)O [azithromycin]
resistance of WHO Z [1]: resistant

C=CC1=C(C(=O)O)N2C(=O)[C@@H](NC(=O)/C(=N\OCC(=O)O)c3csc(N)n3)[C@H]2SC1 [cefixime]
resistance of WHO Z [1]: resistant

CO/N=C(\C(=O)N[C@@H]1C(=O)N2C(C(=O)O)=C(CSc3nc(=O)c(=O)[nH]n3C)CS[C@H]12)c1csc(N)n1 [ceftriaxone, reference compound]
susceptibility of WHO Z ([4]; ceftriaxone positive control (0.5 mg/L)): susceptible | p versus vehicle ([4]; survival at 24 h, FIG. 4, CRO 0.5 mg/L): < 0.0001 | resistance of WHO Z [1]: resistant

CC1(C)S[C@@H]2[C@H](NC(=O)Cc3ccccc3)C(=O)N2[C@H]1C(=O)O [penicillin G]
resistance of WHO Z [1]: resistant

Triton X-100
MIC of Triton X-100 ([5]; in the presence of 0.156 mg/L (sub-MIC) PBT2): 125 µg/mL | MIC of Triton X-100 ([5]; without PBT2): > 1000 µg/mL

zinc [reference compound]
antibacterial activity [6]: neither PBT2 nor zinc alone displayed antibacterial activity which would be suitable to treat an infection | antibacterial activity [7]: neither PBT2 nor zinc alone displayed antibacterial activity which would be suitable to treat an infection | antibacterial activity [8]: neither PBT2 nor zinc alone displayed antibacterial activity which would be suitable to treat an infection | antibacterial activity [9]: neither PBT2 nor zinc alone displayed antibacterial activity which would be suitable to treat an infection
